# In publication PMC8596838, “Xylose‐Configured Cyclophellitols as Selective Inhibitors for Glucocerebrosidase” (Chembiochem, 2021):
# Where two headings read alike, the source gives them in different places.
# Experiments:
# [1] = biological target: GBA (Danio rerio, UniProt E7EZM1); assay: In vivo inhibition in zebrafish larvae, read out by cABPP with ABP 10, GBA; design: species or system zebrafish (Danio rerio); conditions: larvae exposed to 5 dpf, inhibitor in the medium, cABPP quantification
# Source text: (§1) We further investigated the affinity of 1 and 2 towards β‐D‐glucosidases in living animals using zebrafish (Danio rerio) embryos, which express both GBA and GBA2. Following exposure for 5 days, fish larvae were sacrificed and lysed, and cABPP with ABP 10 was used to detect residual active β‐D‐glucosidase molecules in the lysates and for IC50 determination. […] Aziridine compound 2 is also selective against GBA over GBA2, albeit with a narrower selectivity window (Figure 6A–C). […]
# (§2) Figure 6 In vivo inhibitory effect of β‐D‐xylo‐configured compounds on β‐glucosidases in zebrafish (Danio rerio) larvae. […] Fluorescently labeled proteins were visualized after SDS‐PAGE, only GBA and GBA2 were assessed in zebrafish larvae model. (B) Apparent IC50 values towards β‐glucosidases (GBA and GBA2) were determined by the fluorescence quantification based on cABPP results. […] (D) GlcSph levels in zebrafish larvae were determined as described in experiment section, n=2 replicates.
# ABP labeling procedure: Glycosidases were labeled with excess fluorescent ABPs at optimum conditions. […] ABP‐emitted fluorescence was quantified using ImageQuant software (GE Healthcare, Chicago, IL, USA) and curve‐fitted using Prism 8.0 (GraphPad Software). After fluorescence scanning, SDS‐PAGE gels were stained for total protein with Coomassie G250 and scanned on a ChemiDoc MP imager (Bio‐Rad, Hercules, CA, USA).[25] […]
# [2] = biological target: GBA2 (Danio rerio, UniProt E7F5W0); assay: In vivo inhibition in zebrafish larvae, read out by cABPP with ABP 10, GBA2; design: species or system zebrafish (Danio rerio)
# Source text: We further investigated the affinity of 1 and 2 towards β‐D‐glucosidases in living animals using zebrafish (Danio rerio) embryos, which express both GBA and GBA2. Following exposure for 5 days, fish larvae were sacrificed and lysed, and cABPP with ABP 10 was used to detect residual active β‐D‐glucosidase molecules in the lysates and for IC50 determination. […] Aziridine compound 2 is also selective against GBA over GBA2, albeit with a narrower selectivity window (Figure 6A–C). We noted that the apparent IC50 in zebrafish embryo is much […] than the observed in intact cells despite the longer incubation time, which could be a result of poorer bioavailability of the cyclophellitol‐related structures in whole animal, as noted earlier by us.[36]
# Figure 6 In vivo inhibitory effect of β‐D‐xylo‐configured compounds on β‐glucosidases in zebrafish (Danio rerio) larvae. (A) Larvae were exposed to 5 dpf with the indicated inhibitor 1 or 2 in the medium. Larvae were lysed and incubated with fluorescent ABP 10. Fluorescently labeled proteins were visualized after SDS‐PAGE, only GBA and GBA2 were assessed in zebrafish larvae model. (B) Apparent IC50 values towards β‐glucosidases (GBA and GBA2) were determined by the fluorescence quantification based on cABPP results. (C) In vivo inhibition curves. (D) GlcSph levels in zebrafish larvae were determined as described in experiment section, n=2 replicates.
# ABP labeling procedure: Glycosidases were labeled with excess fluorescent ABPs at optimum conditions. ABP labeling was performed at 37 °C for 30 min for all materials (if not otherwise stated), in a total sample volume of 20–40 μL and 0.5–1 % DMSO concentration. GBA was labeled with 200 nM ABP 9 (pH 5.2, 0.1 % (v/v) Triton‐100, 0.2 % (w/v) sodium taurocholate), or labeled together with GBA2 using 200 nM β‐D‐glucose‐configured aziridine ABP 10 at pH 5.8, or labeling together with GBA2 and GBA3 using 200 nM β‐D‐glucose‐configured aziridine ABP 10 at pH 6.0. After ABP incubation, proteins were denatured by boiling the samples with 5× Laemmli buffer (50 % (v/v) 1 M Tris‐HCl, pH 6.8, 50 % (v/v) 100 % glycerol, 10 % (w/v) DTT, 10 % (w/v) SDS, 0.01 % (w/v) bromophenol blue) for 5 min at 98 °C, and separated by electrophoresis on 10 % (w/v) SDS‐PAGE gels running continuously at 90 V. Wet slab‐gels were scanned on fluorescence using the Typhoon FLA 9500 (GE Healthcare) at λEX 473 nm and λEM≥510 nm for green fluorescent ABP 8; and at λEX 635 nm and λEM≥665 nm for ABP 6, 9 and 10. ABP‐emitted fluorescence was quantified using ImageQuant software (GE Healthcare, Chicago, IL, USA) and curve‐fitted using Prism 8.0 (GraphPad Software). After fluorescence scanning, SDS‐PAGE gels were stained for total protein with Coomassie G250 and scanned on a ChemiDoc MP imager (Bio‐Rad, Hercules, CA, USA).[25]
# Inhibition of enzymes in zebrafish larvae: Experiments were performed with 5 dpf larvae. For inhibitor treatment, a single fertilized embryo was seeded in a well of a 96‐wells plate, and exposed to 200 μL corresponding inhibitor for 115 hours at 28.5 °C. Per condition, n=24 embryos were used. At 115 hours (5 dpf), larvae were collected, rinsed three times with egg water, fully aspirated, snap‐frozen in liquid nitrogen and stored at −80 °C until homogenization in 96 μL 25 mM potassium phosphate buffer per 24 individuals. Lysis was conducted by sonication with a Polytron PT 1300D sonicator (Kinematica, Luzern, Switzerland) on ice at 20 % power for three seconds, and repeated three times. […]
# [3] = test system: glucosylsphingosine (GlcSph); assay: GlcSph levels in inhibitor treated zebrafish larvae (LC-MS); format: in vivo, zebrafish (Danio rerio); conditions: treated 103 hours from 8 hpf, n=2
# Source text: as §1, §2
# Sphingolipid extraction and analysis by mass spectrometry in inhibitor treated zebrafish larvae: Zebrafish embryos at 8 hours post fertilization (hpf) were seeded in 96‐well plates (1 fish embryo/ well, 200 μL egg water/well) and treated with corresponding inhibitors in different concentration for 103 hours at 28.5 °C. […] Lipids were extracted and measured according to methods described previously.[48] […]
# [4] = biological target: T1, rhGBA (recombinant human GBA, Imiglucerase) (Homo sapiens, UniProt P04062, R534H); assay: Fluorogenic substrate (4-MU-β-D-glucoside) enzymatic assay, rhGBA; format: biochemical; conditions: for IC50: enzymatic assay performed for 3 h, n=3, read-out: In vitro apparent IC50 rhGBA, 3 h
# T1 construct: purchased Sanofi Genzyme (Cambridge, MA, USA)
# T1 sequence (P04062 40-536 R534H): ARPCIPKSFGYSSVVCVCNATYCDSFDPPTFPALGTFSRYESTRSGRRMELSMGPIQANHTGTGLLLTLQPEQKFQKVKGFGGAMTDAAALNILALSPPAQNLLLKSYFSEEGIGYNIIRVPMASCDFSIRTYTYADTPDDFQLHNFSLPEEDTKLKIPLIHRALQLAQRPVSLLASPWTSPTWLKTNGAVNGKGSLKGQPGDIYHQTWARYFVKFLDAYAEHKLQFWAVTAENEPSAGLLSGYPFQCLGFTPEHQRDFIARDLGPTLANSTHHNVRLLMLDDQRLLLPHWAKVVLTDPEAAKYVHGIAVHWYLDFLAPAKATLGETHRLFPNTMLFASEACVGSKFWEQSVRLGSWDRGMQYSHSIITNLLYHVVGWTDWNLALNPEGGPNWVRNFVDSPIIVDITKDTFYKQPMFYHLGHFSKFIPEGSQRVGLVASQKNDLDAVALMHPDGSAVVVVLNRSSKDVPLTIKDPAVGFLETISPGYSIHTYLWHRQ
# [5] = IC50 ratio, zebrafish larvae 5 dpf
# GBA2, sequence (E7F5W0 entry or part of it): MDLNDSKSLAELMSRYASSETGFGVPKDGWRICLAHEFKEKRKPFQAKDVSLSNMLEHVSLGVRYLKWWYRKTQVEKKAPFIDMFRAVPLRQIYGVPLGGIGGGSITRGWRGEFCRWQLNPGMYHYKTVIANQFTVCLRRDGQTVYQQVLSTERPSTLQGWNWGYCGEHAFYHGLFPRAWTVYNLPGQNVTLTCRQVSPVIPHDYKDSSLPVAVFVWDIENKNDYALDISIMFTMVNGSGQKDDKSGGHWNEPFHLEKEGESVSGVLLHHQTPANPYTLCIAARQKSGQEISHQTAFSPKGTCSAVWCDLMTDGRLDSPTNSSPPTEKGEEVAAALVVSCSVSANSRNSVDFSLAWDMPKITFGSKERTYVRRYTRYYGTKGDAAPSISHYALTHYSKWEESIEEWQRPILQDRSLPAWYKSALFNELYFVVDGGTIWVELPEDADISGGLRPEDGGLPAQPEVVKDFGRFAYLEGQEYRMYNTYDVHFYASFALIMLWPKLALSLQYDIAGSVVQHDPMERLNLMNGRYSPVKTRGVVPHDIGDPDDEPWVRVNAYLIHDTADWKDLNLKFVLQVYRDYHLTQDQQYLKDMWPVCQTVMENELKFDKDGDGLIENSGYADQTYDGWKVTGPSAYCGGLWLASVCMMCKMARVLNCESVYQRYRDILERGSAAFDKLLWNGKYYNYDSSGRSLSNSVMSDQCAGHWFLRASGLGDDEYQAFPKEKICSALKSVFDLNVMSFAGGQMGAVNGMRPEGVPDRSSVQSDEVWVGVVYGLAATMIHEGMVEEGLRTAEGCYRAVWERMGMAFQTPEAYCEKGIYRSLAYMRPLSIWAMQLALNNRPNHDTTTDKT
# GBA, sequence (E7EZM1 entry or part of it): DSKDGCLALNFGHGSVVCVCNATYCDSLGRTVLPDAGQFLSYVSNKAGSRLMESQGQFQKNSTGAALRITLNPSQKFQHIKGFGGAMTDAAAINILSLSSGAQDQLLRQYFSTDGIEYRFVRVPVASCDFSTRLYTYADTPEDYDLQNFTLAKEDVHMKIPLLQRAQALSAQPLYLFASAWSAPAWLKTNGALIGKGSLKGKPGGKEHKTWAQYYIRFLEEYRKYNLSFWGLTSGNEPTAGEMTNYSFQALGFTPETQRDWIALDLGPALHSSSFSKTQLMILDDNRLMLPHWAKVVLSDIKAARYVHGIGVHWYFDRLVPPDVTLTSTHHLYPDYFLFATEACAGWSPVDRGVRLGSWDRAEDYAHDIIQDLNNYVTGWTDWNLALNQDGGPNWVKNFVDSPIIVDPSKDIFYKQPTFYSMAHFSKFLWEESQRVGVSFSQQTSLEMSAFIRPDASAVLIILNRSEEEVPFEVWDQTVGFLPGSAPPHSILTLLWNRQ
SMILES,IC50 [1] [µM],"GBA2/GBA ratio, zebrafish larvae [2, 5]","IC50 ([2]; read-out: Zebrafish larvae IC50 GBA2; larvae exposed to 5 dpf, inhibitor in the medium, cABPP quantification) [µM]",GlcSph levels in zebrafish embryos [3],IC50 [4] [nM],increase in inhibitory activity towards GBA of aziridines relative to epoxide analogues ([4]; in vitro 3 h),"effect on ABP labelling of GBA2 in zebrafish at 150 μM ([2]; 150 μM, exposure for 5 days)","IC50 ([2]; larvae exposed to 5 dpf, inhibitor in the medium, cABPP quantification; read-out: Zebrafish larvae IC50 GBA2) [µM]"
"O[C@@H]1[C@@H](O)[C@H](O)C[C@H]2N[C@@H]12 [compound 2, β‐D‐xylo‐Cyclophellitol aziridine]",6.99,21,150,increased levels of GlcSph,240 ± 30,less than two‐fold increase,,
"O[C@@H]1[C@@H](O)[C@H](O)C[C@H]2O[C@@H]12 [compound 1, xylo‐cyclophellitol]",3.01,> 50,,increased levels of GlcSph,450 ± 20,,without targeting GBA2,> 150
